# Molecular target: Cell division control protein 42 homolog (Homo sapiens, UniProt P60953)
# Test: blockade of fluorescent GTP uptake by Cdc42 wt – biochemical, bead-based multiplex flow cytometry, oxadiazole series, SAR follow-up (AID 2037)
# [1] = inactive by the depositor's call
# Sequence of Cell division control protein 42 homolog (P60953 whole entry): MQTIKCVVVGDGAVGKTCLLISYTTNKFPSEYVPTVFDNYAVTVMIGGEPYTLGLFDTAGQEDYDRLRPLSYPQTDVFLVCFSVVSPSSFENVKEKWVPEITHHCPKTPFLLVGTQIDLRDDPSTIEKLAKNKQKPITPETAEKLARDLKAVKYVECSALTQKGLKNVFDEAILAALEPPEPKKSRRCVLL
SMILES,EC50 [nM],EC50 [1] [nM]
COc1cccc(-c2noc(CCC(=O)N3CCN(c4cc(C)ccc4C)CC3)n2)c1,2770,–
Cc1ccc(C)c(N2CCN(C(=O)CCc3nc(-c4ccccc4C)no3)CC2)c1,> 30000,–
COc1ccc(-c2noc(CCC(=O)N3CCN(c4cccc(Cl)c4)CC3)n2)cc1,> 30000,–
Cc1ccc(C)c(N2CCN(C(=O)CCc3nc(-c4ccccc4C(F)(F)F)no3)CC2)c1,4950,–
COc1ccc(-c2noc(CCC(=O)N3CCN(c4ccccc4C)CC3)n2)cc1,1710,–
COc1ccc(-c2ccc(CCC(=O)N3CCN(c4cc(C)ccc4C)CC3)s2)cc1,> 30000,–
"COc1ccc(-c2noc(CCC(=O)N3CCN(c4cccc(C)c4C)CC3)n2)cc1 [1-[4-(2,3-dimethylphenyl)-1-piperazinyl]-3-[3-(4-methoxyphenyl)-1,2,4-oxadiazol-5-yl]-1-propanone]",–,1150
"COc1ccc(-c2noc(CCC(=O)N3CCN(c4cc(C)ccc4C)CC3)n2)cc1 [1-[4-(2,5-dimethylphenyl)-1-piperazinyl]-3-[3-(4-methoxyphenyl)-1,2,4-oxadiazol-5-yl]-1-propanone]",–,2740
"Cc1ccc(-c2noc(CCC(=O)N3CCN(c4cc(C)ccc4C)CC3)n2)cc1 [1-[4-(2,5-dimethylphenyl)-1-piperazinyl]-3-[3-(4-methylphenyl)-1,2,4-oxadiazol-5-yl]-1-propanone]",4370,–
"Cc1ccc(C)c(N2CCN(C(=O)CCc3nc(-c4ccc(C(F)(F)F)cc4)no3)CC2)c1 [1-[4-(2,5-dimethylphenyl)-1-piperazinyl]-3-[3-[4-(trifluoromethyl)phenyl]-1,2,4-oxadiazol-5-yl]-1-propanone]",–,3210
"COc1ccc(-c2noc(CCCCC(=O)N3CCN(c4cc(C)ccc4C)CC3)n2)cc1 [1-[4-(2,5-dimethylphenyl)-1-piperazinyl]-5-[3-(4-methoxyphenyl)-1,2,4-oxadiazol-5-yl]-1-pentanone]",> 30000,–
"COc1ccc(-c2noc(CC(=O)N3CCN(c4cc(C)ccc4C)CC3)n2)cc1 [1-[4-(2,5-dimethylphenyl)piperazin-1-yl]-2-[3-(4-methoxyphenyl)-1,2,4-oxadiazol-5-yl]ethanone]",> 30000,–
"Cc1cccc(-c2noc(CCC(=O)N3CCN(c4cc(C)ccc4C)CC3)n2)c1 [1-[4-(2,5-dimethylphenyl)piperazin-1-yl]-3-[3-(3-methylphenyl)-1,2,4-oxadiazol-5-yl]propan-1-one]",1020,–
"COc1ccc(-c2cc(CCC(=O)N3CCN(c4cc(C)ccc4C)CC3)on2)cc1 [1-[4-(2,5-dimethylphenyl)piperazin-1-yl]-3-[3-(4-methoxyphenyl)-1,2-oxazol-5-yl]propan-1-one]",> 30000,–
"COc1ccc(-c2coc(CCC(=O)N3CCN(c4cc(C)ccc4C)CC3)n2)cc1 [1-[4-(2,5-dimethylphenyl)piperazin-1-yl]-3-[4-(4-methoxyphenyl)-1,3-oxazol-2-yl]propan-1-one]",2280,–
"COc1ccc(-c2ccc(CCC(=O)N3CCN(c4cc(C)ccc4C)CC3)[nH]2)cc1 [1-[4-(2,5-dimethylphenyl)piperazin-1-yl]-3-[5-(4-methoxyphenyl)-1H-pyrrol-2-yl]propan-1-one]",> 30000,–
"COc1ccc(-c2noc(CCC(=O)N3CCN(c4ccccc4Cl)CC3)n2)cc1 [1-[4-(2-chlorophenyl)piperazin-1-yl]-3-[3-(4-methoxyphenyl)-1,2,4-oxadiazol-5-yl]propan-1-one]",805,–
"COc1ccc(-c2noc(CCC(=O)N3CCN(c4ccccc4F)CC3)n2)cc1 [1-[4-(2-fluorophenyl)piperazin-1-yl]-3-[3-(4-methoxyphenyl)-1,2,4-oxadiazol-5-yl]propan-1-one]",–,655
"COc1ccc(-c2noc(CCC(=O)N3CCN(c4cccc(Br)c4)CC3)n2)cc1 [1-[4-(3-bromophenyl)-1-piperazinyl]-3-[3-(4-methoxyphenyl)-1,2,4-oxadiazol-5-yl]-1-propanone]",> 30000,–
"COc1ccc(-c2noc(CCC(=O)N3CCN(c4cccc(F)c4)CC3)n2)cc1 [1-[4-(3-fluorophenyl)piperazin-1-yl]-3-[3-(4-methoxyphenyl)-1,2,4-oxadiazol-5-yl]propan-1-one]",> 30000,–
"COc1ccc(-c2noc(CCC(=O)N3CCN(c4ccc(Br)cc4)CC3)n2)cc1 [1-[4-(4-bromophenyl)piperazin-1-yl]-3-[3-(4-methoxyphenyl)-1,2,4-oxadiazol-5-yl]propan-1-one]",> 30000,–
"COc1ccc(-c2noc(CCC(=O)N3CCN(c4cccc(C(F)(F)F)c4)CC3)n2)cc1 [1-{3-[3-(4-methoxyphenyl)-1,2,4-oxadiazol-5-yl]propanoyl}-4-[3-(trifluoromethyl)phenyl]piperazine]",–,1920
"Cc1ccc(C)c(N2CCN(C(=O)CCc3nc(-c4ccccc4Br)no3)CC2)c1 [3-[3-(2-bromophenyl)-1,2,4-oxadiazol-5-yl]-1-[4-(2,5-dimethylphenyl)-1-piperazinyl]-1-propanone]",–,2340
"Cc1ccc(C)c(N2CCN(C(=O)CCc3nc(-c4ccccc4Cl)no3)CC2)c1 [3-[3-(2-chlorophenyl)-1,2,4-oxadiazol-5-yl]-1-[4-(2,5-dimethylphenyl)-1-piperazinyl]-1-propanone]",> 30000,–
"COc1ccc(-c2noc(CCC(=O)N3CCN(c4ccccc4)CC3)n2)cc1 [3-[3-(4-methoxyphenyl)-1,2,4-oxadiazol-5-yl]-1-(4-phenylpiperazin-1-yl)propan-1-one]",> 30000,–
"COc1ccc(-c2noc(CCC(=O)N3CCN(c4ccccc4OC)CC3)n2)cc1 [3-[3-(4-methoxyphenyl)-1,2,4-oxadiazol-5-yl]-1-[4-(2-methoxyphenyl)-1-piperazinyl]-1-propanone]",> 30000,–

SMILES,EC50 [nM],EC50 [1] [nM]
"COc1ccc(-c2noc(CCC(=O)N3CCN(c4ccc(OC)cc4)CC3)n2)cc1 [3-[3-(4-methoxyphenyl)-1,2,4-oxadiazol-5-yl]-1-[4-(4-methoxyphenyl)piperazin-1-yl]propan-1-one]",–,450
"COc1ccc(-c2noc(CCC(=O)N3CCN(c4ccc(C)cc4)CC3)n2)cc1 [3-[3-(4-methoxyphenyl)-1,2,4-oxadiazol-5-yl]-1-[4-(4-methylphenyl)piperazin-1-yl]propan-1-one]",–,566
"COc1ccc(-c2noc(CCC(=O)N3CCN(c4ccc(C(F)(F)F)cc4)CC3)n2)cc1 [3-[3-(4-methoxyphenyl)-1,2,4-oxadiazol-5-yl]-1-[4-[4-(trifluoromethyl)phenyl]piperazin-1-yl]propan-1-one]",> 30000,–
COc1ccc(-c2noc(CCC(=O)N3CCN(c4cccc(OC)c4)CC3)n2)cc1 [KUC103349N],–,12100
COc1ccc(-c2noc(CCCC(=O)N3CCN(c4cc(C)ccc4C)CC3)n2)cc1 [KUC103353N],6210,–
Cc1ccc(C)c(N2CCN(C(=O)CCc3nc(-c4ccc(F)cc4)no3)CC2)c1 [KUC103364N],–,360
Cc1ccc(C)c(N2CCN(C(=O)CCc3nc(-c4cccc(F)c4)no3)CC2)c1 [KUC103366N],> 30000,–
Cc1ccc(C)c(N2CCN(C(=O)CCc3nc(-c4cccc(Br)c4)no3)CC2)c1 [KUC103367N],–,2140
COc1ccc(-c2noc(CCC(=O)N3CCN(c4ccccc4Br)CC3)n2)cc1 [KUC103370N],2310,–
Cc1ccc(C)c(N2CCN(C(=O)CCc3nc(-c4cccc(C(F)(F)F)c4)no3)CC2)c1 [KUC103380N],> 30000,–
COc1ccc(-c2noc(CCC(=O)N3CCN(c4ccc(F)cc4)CC3)n2)cc1 [KUC103398N],> 30000,–
Cc1ccc(C)c(N2CCN(C(=O)CCc3nc(-c4ccccc4F)no3)CC2)c1 [KUC103401N],> 30000,–
Cc1ccc(C)c(N2CCN(C(=O)CCc3nc(-c4ccc(N(C)C)cc4)no3)CC2)c1 [KUC103409N],–,1190
COc1ccc(-c2noc(CCC(=O)N3CCC(c4cc(C)ccc4C)CC3)n2)cc1 [KUC103432N],1420,–
COc1ccc(-c2ccc(CCC(=O)N3CCN(c4cc(C)ccc4C)CC3)o2)cc1 [KUC103447N],> 30000,–
Cc1ccc(C)c(N2CCN(C(=O)CCc3nc(-c4ccccc4)no3)CC2)c1 [UNM-0000306070],4000,–
COc1ccccc1-c1noc(CCC(=O)N2CCN(c3cc(C)ccc3C)CC2)n1 [UNM-0000306071],–,1540
Cc1ccc(C)c(N2CCN(C(=O)CCc3nc(-c4ccc(Br)cc4)no3)CC2)c1 [UNM-0000306072],–,1620
COc1ccc(-c2noc(CCC(=O)N3CCN(c4ccccc4C(F)(F)F)CC3)n2)cc1 [UNM-0000306082],–,1980
Cc1ccc(C)c(N2CCN(C(=O)CCc3nc(-c4ccc(Cl)cc4)no3)CC2)c1 [UNM-0000306083],1720,–
Cc1ccc(C)c(N2CCN(C(=O)CCc3nc(-c4cccc(Cl)c4)no3)CC2)c1 [UNM-0000306086],2180,–
COc1ccc(-c2noc(CCC(=O)N3CCN(c4ccc(Cl)cc4)CC3)n2)cc1 [UNM-0000306121],> 30000,–
COc1ccc(-c2noc(CCC(=O)N3CCN(c4cccc(C)c4)CC3)n2)cc1 [UNM-0000306125],> 30000,–
COc1ccc(-c2cccc(CCC(=O)N3CCN(c4cc(C)ccc4C)CC3)c2)cc1 [UNM-0000306127],–,3670
COc1ccc(-c2cc(CCC(=O)N3CCN(c4cc(C)ccc4C)CC3)[nH]n2)cc1 [UNM-0000306150],> 30000,–
